# Measurements published in US20080170990A1, “Methods for Myocardial Imaging in Patients Having a History of Pulmonary Disease” (CV THERAPEUTICS, INC., priority 2006, published 2008).
# Like-named read-outs stand apart in the source and are kept apart here.
# Columns and labels:
# [1] = tested on: subjects undergoing stress/rest MPI; test: Stress/rest SPECT myocardial perfusion imaging, adenosine vs Regadenoson (Example 6); format: in vivo, human; details: 4D MSPECT; p=n.s.
# Experimental: To determine the ability of Regadenoson to produce coronary hyperemia and accurately detect CAD, 35 subjects (26 men, 9 women; 67±10 years) underwent both A and Regadenoson stress/rest MPI, with 10.0±9.1 days between studies. […] Regadenoson [400 mcg (n=18), 500 mcg (n=17)] was administered as an IV bolus immediately followed by a saline flush, and then a Tc-99m radiopharmaceutical [sestamibi (n=34), tetrofosmin (n=1)]. SPECT images were uniformly processed, intermixed with control studies (normal and fixed-only defects), and interpreted by three observers in a blinded fashion using a 17-segment model. Quantitative analysis was also performed using 4D MSPECT. In addition to three separate readings, a consensus interpretation was performed and then a direct, same-screen comparison of A and REGADENASON images undertaken to determine relative differences, using 5 regions per study.
# [2] = tested on: healthy, non-smoking male subjects; test: Phase 1 ascending dose study, safety and maximum tolerated dose (Example 3); format: in vivo, human
# Experimental: The study was performed using thirty-six healthy, non-smoking male subjects between the ages of 18 and 59 and within 15% of ideal body weight.
# The study was performed in phase 1, single center, double-blind, randomized, placebo-controlled, crossover, ascending dose study. Randomization was to Regadenoson or placebo, in both supine and standing positions.
# (§1) Regadenoson was administered as an IV bolus (20 seconds) in ascending doses of […], 10, 20 and 30 μg/kg.
# Subjects received either Regadenoson of placebo on Day 1 supine, then crossover treatment on Day 2 supine. On Day 3, subjects received Regadenoson or placebo standing, then crossover treatment on Day 4 standing.
# Patient safety was monitored by ECG, laboratory assessments, and collection of vital signs and adverse events.
# awake dogs = test: Blood flow in coronary, mesenteric, hind limb and renal vascular beds (Example 8); format: in vivo, dog
# Excerpt: In this study the vasodilator effects of Regadenoson were compared to those of ADO in different vascular beds in awake dogs. Dogs were chronically instrumented for measurements of the blood flow in coronary (CBF), mesenteric (MBF), hind limb (LBF), and renal (RBF) vascular beds, and hemodynamics.
# awake rats = test: Sympathoexcitation: heart rate, blood pressure and plasma catecholamines after i.v. bolus (Example 5); format: in vivo, rat
# Experimental: CVT (0.31 μg/kg-50 μg/kg) was given as a rapid i.v. bolus to awake rats and heart rate (HR) and blood pressure (BP) were monitored. Regadenoson caused an increase in BP and systolic pressure (SP) at lower doses while at higher doses there was a decrease in BP and SP. […] The increase in HR was evident at the lowest dose of CVT at which there was no appreciable decrease in BP. ZM241385 (30 μg/kg, N=5), an A2A adenosine receptor antagonist, attenuated the decrease in BP (Regadenoson: 14±3%, ZM: 1±1%) and the increase in HR (CVT: 27±3%, ZM: 18±3%) caused by Regadenoson. Pretreatment with metoprolol (MET, 1 mg/kg, n=5), a beta-blocker, attenuated the increase in HR (CVT: 27±3%, MET: 15±2%), but had no effect on hypotension caused by Regadenoson. In the presence of hexamethonium (HEX, 10 mg/kg, n=5), a ganglionic blocker, the tachycardia was prevented (CVT: 27±3%, HEX: −1±2%), but BP was further reduced (CVT: −11±2%, HEX: −49±5%).
# COPD patients = details: both, human, in vivo
# Excerpt: COPD patients were selected from two phase III randomized, triple-blind, placebo-controlled, multicenter studies (N=2,015) designed to test the strength of agreement for reversible cardiac defects between ADO and REG. There were 35 patients in the ADO group and 69 in the Regadenoson group. Age and gender were similar between ADO (68=11 yrs; 77% male) and Regadenoson group (68±11 yrs; 81% male). Of the 35 patients, 5 suffered (14%) cardiac symptoms in the ADO group vs 3/69 (4%) in the Regadenoson group (p=0.12); 14/35 (40%) in the ADO vs. 20/69 (29%) in the Regadenoson group resorted respiratory symptoms (p=0.28). Angina, occurrence of second degree AV block, acute pulmonary oedema and ronchi were higher in ADO group; nausea, GI discomfort and headache occurred more often in the Regadenoson group.
# [3] = Phase 1 pharmacokinetics after single IV bolus, three-compartment model (Example 3); format: in vivo, human; details: for Vd: human, plasma, intravenous, read-out: Vc (central volume of distribution)
# Experimental: as §1
# Plasma samples were drawn during supine phase (Days 1 and 2) at 0, 1, 2, 3, 4, 5, 7, 10, 15, 20, 30, 45 minutes after dosing and at 1, 1.5, 2, 4, 6, 8, 12 and 24 hours after dosing. Urine was collected for 24 hours for Regadenoson excretion.
# A three-compartment open model was fit to the data using observed Tmax (1-4 minutes) as the duration of a zero-order infusion. Reliable parameter estimates were obtained for dose of 1-30 μg/kg. Parameters are summarized in the following (Table 2): […]
# anesthetized dog = test: Blood flow velocity in various vascular beds, intravascular Doppler (Example 4); format: in vivo; details: 1.0 μg/kg intravenous bolus
# Excerpt: The effects of Regadenoson were quantified as the average peak blood flow velocity (APV) using intravascular Doppler transducer tipped catheter. Heart rate (HR) and systemic arterial blood pressure (BP) were also monitored.
# [4] = 30 μg/kg supine, 4 subjects per group
compound,measurement,setting,value
"CNC(=O)c1cnn(-c2nc(N)c3ncn([C@@H]4O[C@H](CO)[C@@H](O)[C@H]4O)c3n2)c1 [Regadenoson, (1-{9-[(4S,2R,3R,5R)-3,4-dihydroxy-5-(hydroxymethyl)oxolan-2-yl]-6-aminopurin-2-yl}pyrazol-4-yl)-N-methylcarboxamide]","summed score following stress, quantitative analysis",[1],133.6±1.6
same,number of subjects with severe AE: Palpitation,[2]; [4],2
same,number of subjects with severe AE: Syncope,[2]; [4],0
same,tolerability,"[2]; healthy volunteers, single IV bolus",well-tolerated
same,mean tolerable dose,[2]; standing,0.01 mg/kg
same,mean tolerable dose,[2]; supine,0.02 mg/kg
same,potency relative to adenosine in increasing coronary blood flow velocity (CBFv),awake dogs; awake dogs,> 100 fold
same,increase in hind limb blood flow (LBF),"awake dogs; mean ±SE, n=6, FIG. 18",smaller increase in LBF than ADO
same,effect on HR,awake rats; 0.31 μg/kg-50 μg/kg rapid i.v. bolus,dose-dependent increase in HR
same,BP change caused by Regadenoson,awake rats; CVT alone (hexamethonium experiment),−11±2%
same,increase in HR caused by Regadenoson,"awake rats; CVT alone (printed three times: ZM, MET, HEX comparisons)",27±3%
same,decrease in BP caused by Regadenoson,awake rats; Regadenoson alone (ZM241385 experiment),14±3%
same,patients with cardiac symptoms,COPD patients,4%
same,"patients with cardiac symptoms, number",COPD patients,3/69
same,patients with respiratory symptoms,COPD patients,29%
same,"patients with respiratory symptoms, number",COPD patients,20/69
same,K21 (rate constant for transfer from first peripheral to central compartment),"[3]; Total (all doses), N=22, mean",0.258 min⁻¹
same,K31 (rate constant for transfer from second peripheral to central compartment),"[3]; Total (all doses), N=22, mean",0.0143 min⁻¹
same,Vss (volume of distribution at steady state),"[3]; Total (all doses), N=22, mean",75.5 L
same,K21 (rate constant for transfer from first peripheral to central compartment),"[3]; dose 1 μg/kg, N=3, mean",0.246 min⁻¹
same,K31 (rate constant for transfer from second peripheral to central compartment),"[3]; dose 1 μg/kg, N=3, mean",0.01808 min⁻¹
same,K21 (rate constant for transfer from first peripheral to central compartment),"[3]; dose 3 μg/kg, N=4, mean",0.203 min⁻¹
same,K31 (rate constant for transfer from second peripheral to central compartment),"[3]; dose 3 μg/kg, N=4, mean",0.0152 min⁻¹
same,α Half-life,"[3]; dose 3 μg/kg, N=4, mean",3.11 min
same,K21 (rate constant for transfer from first peripheral to central compartment),"[3]; dose 10 μg/kg, N=4, mean",0.187 min⁻¹
same,K31 (rate constant for transfer from second peripheral to central compartment),"[3]; dose 10 μg/kg, N=4, mean",0.0108 min⁻¹
same,K21 (rate constant for transfer from first peripheral to central compartment),"[3]; dose 20 μg/kg, N=8, mean",0.387 min⁻¹
same,K31 (rate constant for transfer from second peripheral to central compartment),"[3]; dose 20 μg/kg, N=8, mean",0.0141 min⁻¹
same,CL (clearance),"[3]; dose 20 μg/kg, N=8, mean (SD)",743 (123) mL/min
same,K21 (rate constant for transfer from first peripheral to central compartment),"[3]; dose 30 μg/kg, N=3, mean",0.0948 min⁻¹
same,K31 (rate constant for transfer from second peripheral to central compartment),"[3]; dose 30 μg/kg, N=3, mean",0.0148 min⁻¹
same,Vss (volume of distribution at steady state),"[3]; dose 30 μg/kg, N=3, mean",89.6 L
same,λ Half-life,"[3]; dose 30 μg/kg, N=3, mean",99.4 min
same,Vd,"[3]; 1 ug/kg, N=3, mean (SD)",9.84 L
same,Vd,"[3]; 3 ug/kg, N=4, mean (SD)",13.7 L
same,Vd,"[3]; 10 ug/kg, N=4, mean (SD)",17.9 L
same,Vd,"[3]; 20 ug/kg, N=8, mean",12.5 L
same,Vd,"[3]; 30 ug/kg, N=3, mean",15.7 L
same,Vd,"[3]; Total (all doses), N=22, mean",13.8 L
same,time for effect on blood flow velocity to dissipate,anesthetized dog,less than ten minutes
